According to PubChem BioAssay AID248 (DTP/NCI, 2004):
Inconclusive results and toxic doses are left out. Cut-off read from the data, not from the text of the source: active = T/C of 150% or more; inactive = T/C below 125%.

Tested on: L1210 leukemia ip in BDF1 mice, survival T/C
Experiment: NCI In Vivo Anticancer Drug Screen. Data for tumor model L1210 Leukemia (intraperitoneal) in B6D2F1 (BDF1) mice
Conditions: endpoint: mean survival time, higher = longer survival
Procedure, shortened: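 Each compound was tested against a transplantable tumor grown in mice. The endpoint was survival, with treated animals benchmarked against vehicle controls as a simple ratio.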

[1] = dose: 100.0 mg/kg/injection, schedule: Q01DX009 (ip), vehicle: Klucel (hydroxypropylcellulose) (HPC)
[2] = dose: 100.0 mg/kg/injection, schedule: Q04DX003 (ip), vehicle: saline
[3] = dose: 200.0 mg/kg/injection, schedule: Q04DX003 (ip), vehicle: saline
[4] = dose: 400.0 mg/kg/injection, schedule: Q04DX003 (ip), vehicle: saline
[5] = dose: 100.0 mg/kg/injection, schedule: Q01DX001 (ip), vehicle: saline
[6] = dose: 200.0 mg/kg/injection, schedule: Q01DX001 (ip), vehicle: saline
[7] = dose: 400.0 mg/kg/injection, schedule: Q01DX001 (ip), vehicle: saline
[8] = dose: 12.5 mg/kg/injection, schedule: Q04DX003 (ip), vehicle: saline with Tween-80
[9] = dose: 25.0 mg/kg/injection, schedule: Q01DX009 (ip), vehicle: saline with Tween-80
[10] = dose: 25.0 mg/kg/injection, schedule: Q04DX003 (ip), vehicle: saline with Tween-80
[11] = dose: 100.0 mg/kg/injection, schedule: Q04DX003 (ip), vehicle: Klucel (hydroxypropylcellulose) (HPC)
[12] = dose: 200.0 mg/kg/injection, schedule: Q04DX003 (ip), vehicle: Klucel (hydroxypropylcellulose) (HPC)
[13] = dose: 50.0 mg/kg/injection, schedule: Q01DX009 (ip), vehicle: saline with Tween-80
[14] = dose: 50.0 mg/kg/injection, schedule: Q04DX003 (ip), vehicle: saline with Tween-80
[15] = dose: 100.0 mg/kg/injection, schedule: Q01DX009 (ip), vehicle: saline with Tween-80
[16] = dose: 100.0 mg/kg/injection, schedule: Q04DX003 (ip), vehicle: saline with Tween-80
[17] = dose: 100.0 mg/kg/injection, schedule: Q01DX001 (ip), vehicle: Klucel (hydroxypropylcellulose) (HPC)

Measured: T/C

O=C(NCCc1ccccc1)c1ccc2ccccc2n1
inactive: dose: 3.12 mg/kg/injection, schedule: Q01DX009 (ip), vehicle: DMSO 93 % of control | dose: 6.25 mg/kg/injection, schedule: Q01DX009 (ip), vehicle: DMSO 93 % of control | dose: 12.5 mg/kg/injection, schedule: Q01DX009 (ip), vehicle: DMSO 91 % of control | dose: 25.0 mg/kg/injection, schedule: Q01DX009 (ip), vehicle: DMSO 90 % of control | dose: 100.0 mg/kg/injection, schedule: Q04DX003 (ip), vehicle: DMSO 95 % of control | dose: 200.0 mg/kg/injection, schedule: Q04DX003 (ip), vehicle: DMSO 97 % of control | dose: 400.0 mg/kg/injection, schedule: Q04DX003 (ip), vehicle: DMSO 95 % of control

COc1ccc(OC)c(NC(=O)Nc2cc(C(F)(F)F)ccc2Cl)c1
inactive: [1] 104 % of control | dose: 400.0 mg/kg/injection, schedule: Q01DX009 (ip), vehicle: Klucel (hydroxypropylcellulose) (HPC) 91 % of control

CCOC(=O)CCN(CC)CC
inactive: [2] 97 % of control | [3] 94 % of control | [4] 108 % of control

CCOC(=O)N/N=C/c1cccs1
inactive: [5] 98 % of control | [6] 96 % of control | [7] 98 % of control

C[N+](C)(C)C1(Cc2ccc(F)cc2)c2ccccc2-c2ccccc21
inactive: dose: 6.25 mg/kg/injection, schedule: Q01DX009 (ip), vehicle: saline with Tween-80 88 % of control | dose: 6.25 mg/kg/injection, schedule: Q04DX002 (ip), vehicle: saline with Tween-80 98 % of control | dose: 6.25 mg/kg/injection, schedule: Q04DX003 (ip), vehicle: saline with Tween-80 90 % of control | dose: 12.5 mg/kg/injection, schedule: Q04DX002 (ip), vehicle: saline with Tween-80 115 % of control | [8] 90 % of control | [9] 88 % of control | dose: 25.0 mg/kg/injection, schedule: Q04DX002 (ip), vehicle: saline with Tween-80 98 % of control | [10] 90 % of control

COc1ccc2c(OC)c3ccoc3nc2c1OC
inactive: dose: 25.0 mg/kg/injection, schedule: Q01DX Z (ip), vehicle: carboxymethylcellulose (CMC) 97 % of control | dose: 50.0 mg/kg/injection, schedule: Q01DX Z (ip), vehicle: carboxymethylcellulose (CMC) 100 % of control

Cc1nc(N(C)C)[nH]c(=O)c1CCCNc1ccccc1
inactive: dose: 100.0 mg/kg/injection, schedule: Q01DX001 (ip), vehicle: saline with Tween-80 111 % of control | dose: 200.0 mg/kg/injection, schedule: Q01DX001 (ip), vehicle: saline with Tween-80 96 % of control | dose: 400.0 mg/kg/injection, schedule: Q01DX001 (ip), vehicle: saline with Tween-80 100 % of control

NC(=O)c1cccc([N+](=O)[O-])c1Br
inactive: [11] 103 % of control | [12] 98 % of control

N#C/C(=C\c1ccc(-c2ccccc2)cc1)c1ccccc1
inactive: dose: 12.5 mg/kg/injection, schedule: Q01DX009 (ip), vehicle: saline with Tween-80 87 % of control | [8] 109 % of control | [9] 87 % of control | [10] 91 % of control | [13] 86 % of control | [14] 88 % of control

CCC(=O)c1ccc(OCC(O)CN2CCC(O)(c3ccccc3)CC2)cc1 (stereo unspecified)
inactive: [9] 98 % of control | [10] 97 % of control | [13] 89 % of control | [14] 105 % of control | [15] 95 % of control | [16] 100 % of control

C=CCCCCCCCCC(=O)N/N=C/c1cccc(OC)c1OC
inactive: dose: 100.0 mg/kg/injection, schedule: Q04DX002 (ip), vehicle: saline 95 % of control | dose: 200.0 mg/kg/injection, schedule: Q04DX002 (ip), vehicle: saline 103 % of control | dose: 400.0 mg/kg/injection, schedule: Q04DX002 (ip), vehicle: saline 106 % of control

SCc1c(Cl)c(Cl)c(Cl)c(Cl)c1Cl.[Hg]
inactive: [11] 93 % of control | [12] 91 % of control | dose: 400.0 mg/kg/injection, schedule: Q04DX003 (ip), vehicle: Klucel (hydroxypropylcellulose) (HPC) 93 % of control

COC(=O)CNC(=O)C(Cc1ccc(OCc2ccccc2)cc1)NC=O (stereo unspecified)
inactive: [15] 89 % of control | [16] 105 % of control | dose: 200.0 mg/kg/injection, schedule: Q01DX009 (ip), vehicle: saline with Tween-80 90 % of control | dose: 200.0 mg/kg/injection, schedule: Q04DX003 (ip), vehicle: saline with Tween-80 100 % of control | dose: 400.0 mg/kg/injection, schedule: Q01DX009 (ip), vehicle: saline with Tween-80 90 % of control | dose: 400.0 mg/kg/injection, schedule: Q04DX003 (ip), vehicle: saline with Tween-80 102 % of control

CC(=O)Oc1ccc(CCNC(c2ccccc2)c2ccccc2)cc1OC(C)=O
inactive: [5] 100 % of control | [6] 107 % of control | [7] 86 % of control

O=C(NNC(=S)Nc1cccc(Cl)c1)c1ccncc1
inactive: dose: 25.0 mg/kg/injection, schedule: Q01DX009 (ip), vehicle: Klucel (hydroxypropylcellulose) (HPC) 104 % of control | dose: 50.0 mg/kg/injection, schedule: Q01DX009 (ip), vehicle: Klucel (hydroxypropylcellulose) (HPC) 96 % of control | [1] 96 % of control

COC(=O)N1C(C)=CC=CC=C1C
inactive: dose: 12.5 mg/kg/injection, schedule: Q04DX002 (ip), vehicle: Klucel (hydroxypropylcellulose) (HPC) 94 % of control | dose: 25.0 mg/kg/injection, schedule: Q04DX002 (ip), vehicle: Klucel (hydroxypropylcellulose) (HPC) 88 % of control | dose: 50.0 mg/kg/injection, schedule: Q04DX002 (ip), vehicle: Klucel (hydroxypropylcellulose) (HPC) 98 % of control | dose: 100.0 mg/kg/injection, schedule: Q04DX002 (ip), vehicle: Klucel (hydroxypropylcellulose) (HPC) 100 % of control

CCc1ccccc1NC(=O)N1CCCCC1C (stereo unspecified)
inactive: [1] 102 % of control | dose: 200.0 mg/kg/injection, schedule: Q01DX009 (ip), vehicle: Klucel (hydroxypropylcellulose) (HPC) 94 % of control

OCC(O)Cc1ccccc1 (stereo unspecified)
inactive: dose: 100.0 mg/kg/injection, schedule: Q01DX009 (ip), vehicle: saline 97 % of control | [2] 102 % of control | dose: 200.0 mg/kg/injection, schedule: Q01DX009 (ip), vehicle: saline 105 % of control | [3] 102 % of control | dose: 400.0 mg/kg/injection, schedule: Q01DX009 (ip), vehicle: saline 108 % of control | [4] 101 % of control

[Cl][Sn]([CH]1CCCCC1)([CH]1CCCCC1)[CH]1CCCCC1
inactive: dose: 12.5 mg/kg/injection, schedule: Q04DX002 (ip), vehicle: gum acacia 101 % of control | dose: 25.0 mg/kg/injection, schedule: Q04DX002 (ip), vehicle: gum acacia 101 % of control

CC(=O)Nc1nc(C)c(CCCNS(=O)(=O)c2ccc(N)cc2)c(=O)[nH]1
inactive: dose: 25.0 mg/kg/injection, schedule: Q01DX001 (ip), vehicle: Klucel (hydroxypropylcellulose) (HPC) 102 % of control | dose: 50.0 mg/kg/injection, schedule: Q01DX001 (ip), vehicle: Klucel (hydroxypropylcellulose) (HPC) 92 % of control | [17] 95 % of control

CCCCCCCCCCCC(=O)CCC
inactive: dose: 100.0 mg/kg/injection, schedule: Q01DX009 (ip), vehicle: other 87 % of control | dose: 100.0 mg/kg/injection, schedule: Q04DX003 (ip), vehicle: other 103 % of control | dose: 200.0 mg/kg/injection, schedule: Q01DX009 (ip), vehicle: other 95 % of control | dose: 200.0 mg/kg/injection, schedule: Q04DX003 (ip), vehicle: other 105 % of control | dose: 400.0 mg/kg/injection, schedule: Q01DX009 (ip), vehicle: other 89 % of control | dose: 400.0 mg/kg/injection, schedule: Q04DX003 (ip), vehicle: other 103 % of control

Cc1ccc(S(=O)(=O)NC(Cc2ccccc2)C(=O)Nc2cccnc2)cc1 (stereo unspecified)
inactive: [17] 91 % of control | dose: 200.0 mg/kg/injection, schedule: Q01DX001 (ip), vehicle: Klucel (hydroxypropylcellulose) (HPC) 100 % of control | dose: 400.0 mg/kg/injection, schedule: Q01DX001 (ip), vehicle: Klucel (hydroxypropylcellulose) (HPC) 88 % of control
